The values that follow come from ChEMBL document CHEMBL2163242, “Development of anti-coxsackievirus agents targeting 3C protease” (Bioorg Med Chem Lett, 2012).

Data set [1] has as its target Genome polyprotein (Coxsackievirus B3 (strain Nancy), UniProt P03313). Nature of the data set: Inhibition of Coxsackievirus B3 protease 3c using NMA-EALFQGPPVK-DNP as substrate incubated for 5 mins prior to substrate addition measured after 1 hr by FRET assay.
The subject of data set [2] is Coxsackievirus B3. Nature of the data set: Antiviral activity against Coxsackievirus B3 H3 infected in HeLa-UVM cells assessed as host cell viability at 1 uM after 6 to 24 hrs by CCK8 assay. In kind it is functional.
Data set [3] is described as follows: Aqueous solubility of the compound by HPLC analysis. In kind it is physicochemical. The settings on record: buffer.
The test system of data set [4] is Coxsackievirus B3. Nature of the data set: Antiviral activity against Coxsackievirus B3 H3 infected in HeLa-UVM cells assessed as host cell viability at 0.5 uM after 6 to 24 hrs by CCK8 assay. In kind it is functional. For orientation: Tetrazolium dyes change colour on reduction, which living cells bring about.
Data set [5] concerns the target Genome polyprotein (Coxsackievirus B3 (strain Nancy)) (UniProt P03313). Nature of the data set: Inhibition of Coxsackievirus B3 protease 3c using NMA-EALFQGPPVK-DNP as substrate at 10 uM incubated for 5 mins prior to substrate addition measured after 1 hr by FRET assay.

Chain of Genome polyprotein (P03313 1541-1723 limits assumed): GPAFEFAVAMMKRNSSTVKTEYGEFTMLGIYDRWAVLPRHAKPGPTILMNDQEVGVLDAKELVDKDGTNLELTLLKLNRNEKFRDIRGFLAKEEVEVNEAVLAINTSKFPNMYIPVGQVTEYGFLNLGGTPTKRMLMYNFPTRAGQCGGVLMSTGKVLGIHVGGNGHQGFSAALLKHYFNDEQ
Chain of Genome polyprotein (Coxsackievirus B3 (strain Nancy)) (P03313 whole entry): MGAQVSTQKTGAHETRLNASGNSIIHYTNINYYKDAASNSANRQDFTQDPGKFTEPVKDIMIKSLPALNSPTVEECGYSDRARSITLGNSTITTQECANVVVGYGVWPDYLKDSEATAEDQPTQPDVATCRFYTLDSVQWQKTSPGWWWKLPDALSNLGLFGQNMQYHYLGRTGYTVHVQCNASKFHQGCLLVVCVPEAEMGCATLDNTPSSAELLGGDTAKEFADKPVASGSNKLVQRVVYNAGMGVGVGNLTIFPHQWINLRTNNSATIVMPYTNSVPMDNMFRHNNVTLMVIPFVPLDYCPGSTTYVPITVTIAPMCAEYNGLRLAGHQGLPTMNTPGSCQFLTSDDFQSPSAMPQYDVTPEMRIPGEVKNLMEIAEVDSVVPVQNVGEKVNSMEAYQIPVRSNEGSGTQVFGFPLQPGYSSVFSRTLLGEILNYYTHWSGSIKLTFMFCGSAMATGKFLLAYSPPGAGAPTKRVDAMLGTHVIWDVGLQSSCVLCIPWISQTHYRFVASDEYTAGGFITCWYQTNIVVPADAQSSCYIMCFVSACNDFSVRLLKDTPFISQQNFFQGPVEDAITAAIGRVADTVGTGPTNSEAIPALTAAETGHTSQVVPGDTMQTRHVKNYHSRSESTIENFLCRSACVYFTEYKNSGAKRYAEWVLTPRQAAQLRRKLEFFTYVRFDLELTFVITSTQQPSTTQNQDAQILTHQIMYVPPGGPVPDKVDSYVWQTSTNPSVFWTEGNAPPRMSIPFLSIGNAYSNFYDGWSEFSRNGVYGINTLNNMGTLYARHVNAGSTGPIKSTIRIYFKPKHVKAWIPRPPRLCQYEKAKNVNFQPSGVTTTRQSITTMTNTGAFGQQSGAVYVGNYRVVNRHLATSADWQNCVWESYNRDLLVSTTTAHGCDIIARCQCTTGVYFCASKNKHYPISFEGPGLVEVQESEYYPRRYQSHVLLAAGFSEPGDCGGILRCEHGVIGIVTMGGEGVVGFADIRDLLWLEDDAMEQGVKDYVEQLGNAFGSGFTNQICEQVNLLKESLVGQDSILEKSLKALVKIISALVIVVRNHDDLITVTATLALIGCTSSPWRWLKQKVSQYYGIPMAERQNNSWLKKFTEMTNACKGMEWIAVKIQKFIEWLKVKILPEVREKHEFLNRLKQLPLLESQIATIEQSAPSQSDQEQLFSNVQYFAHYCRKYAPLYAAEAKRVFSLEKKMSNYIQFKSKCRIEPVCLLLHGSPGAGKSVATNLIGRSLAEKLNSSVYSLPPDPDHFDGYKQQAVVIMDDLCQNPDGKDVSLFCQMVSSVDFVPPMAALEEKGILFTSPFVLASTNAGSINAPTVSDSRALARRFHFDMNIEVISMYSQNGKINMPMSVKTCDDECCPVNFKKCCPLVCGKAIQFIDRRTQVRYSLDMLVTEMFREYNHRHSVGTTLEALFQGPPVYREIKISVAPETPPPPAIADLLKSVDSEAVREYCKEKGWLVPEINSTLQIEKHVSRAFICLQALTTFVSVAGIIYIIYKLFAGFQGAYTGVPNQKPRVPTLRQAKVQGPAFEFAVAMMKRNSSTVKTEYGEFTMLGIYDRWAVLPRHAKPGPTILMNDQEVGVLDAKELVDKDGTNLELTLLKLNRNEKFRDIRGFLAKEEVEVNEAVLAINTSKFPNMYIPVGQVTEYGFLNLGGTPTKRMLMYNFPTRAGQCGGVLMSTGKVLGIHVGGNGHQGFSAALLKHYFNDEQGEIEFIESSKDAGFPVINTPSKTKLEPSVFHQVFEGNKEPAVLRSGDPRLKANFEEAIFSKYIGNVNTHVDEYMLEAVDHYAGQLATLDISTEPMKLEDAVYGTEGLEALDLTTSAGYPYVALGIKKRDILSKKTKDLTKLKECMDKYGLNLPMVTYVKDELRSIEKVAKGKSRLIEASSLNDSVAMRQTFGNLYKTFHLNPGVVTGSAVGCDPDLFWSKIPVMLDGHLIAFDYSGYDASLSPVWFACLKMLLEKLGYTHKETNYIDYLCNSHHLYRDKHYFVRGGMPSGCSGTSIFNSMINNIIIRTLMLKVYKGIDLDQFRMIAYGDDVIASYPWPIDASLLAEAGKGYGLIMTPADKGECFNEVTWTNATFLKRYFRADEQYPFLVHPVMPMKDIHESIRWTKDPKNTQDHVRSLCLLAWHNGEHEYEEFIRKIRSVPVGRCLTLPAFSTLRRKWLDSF

On to `Cc1cc(C(=O)N[C@H](C(=O)N[C@@H](Cc2ccc(F)cc2)C(=O)N[C@@H](/C=C/C(=O)OCc2ccc3nc[nH]c3c2)CCC(N)=O)C(C)C)no1`, for which the IC50 – broadly, the concentration at which inhibition is half-maximal – in data set [1] was 470 nM. The Activity in data set [2] was 50%.

For `Cc1cc(C(=O)N[C@H](C(=O)N[C@@H](Cc2ccc(F)cc2)C(=O)N[C@@H](/C=C/C(=O)OCc2nc(-c3ccncc3)no2)CCC(N)=O)C(C)C)no1`, in data set [1], half-maximal inhibition (IC50) was put at 650 nM. In addition, in data set [2], the Activity was determined as 50%.

For the molecule `Cc1cc(C(=O)N[C@H](C(=O)N[C@@H](Cc2ccc(F)cc2)C(=O)N[C@@H](/C=C/C(=O)OCc2ccc3[nH]ncc3c2)CCC(N)=O)C(C)C)no1.Cl`, the solubility entry in data set [3] was “soluble”.

With `Cc1cc(C(=O)N[C@H](C(=O)N[C@@H](Cc2ccc(F)cc2)C(=O)N[C@@H](/C=C/C(=O)OCc2ccnc3ccccc23)CCC(N)=O)C(C)C)no1`, the Activity in data set [4] and in data set [2] was 50% in each case. The molecule further gave an IC50 in data set [1] of 130 nM.

For the molecule `Cc1cc(C(=O)N[C@H](C(=O)N[C@@H](Cc2ccc(F)cc2)C(=O)N[C@@H](/C=C/C(=O)OCc2nc3ccccc3[nH]2)CCC(N)=O)C(C)C)no1`, in data set [1], the midpoint of inhibition, the IC50, lay at 240 nM. Moreover, in data set [2], the Activity was 50%.

In turn, `Cc1cc(C(=O)N[C@H](C(=O)N[C@@H](Cc2ccc(F)cc2)C(=O)N[C@@H](/C=C/C(=O)OCc2ccc3ccccc3c2)CCC(N)=O)C(C)C)no1` came in with a concentration for half-maximal inhibition (IC50) in data set [1] of 410 nM. Besides, the Activity in data set [2] amounted to 50%.

For `Cc1cc(C(=O)N[C@H](C(=O)N[C@@H](Cc2ccc(F)cc2)C(=O)N[C@@H](/C=C/C(=O)OCc2cn3cccc(C)c3n2)CCC(N)=O)C(C)C)no1`, in data set [1], the midpoint of inhibition, the IC50, lay at 170 nM. In addition, the Activity in data set [2] is 50%.

Regarding `Cc1cc(C(=O)N[C@H](C(=O)N[C@@H](Cc2ccc(F)cc2)C(=O)N[C@@H](/C=C/C(=O)OCc2cnc3ccccc3c2)CCC(N)=O)C(C)C)no1`, the Activity in data set [4] and in data set [2] was 50% throughout. This molecule also returned an IC50 in data set [1] of 250 nM.

On to `Cc1cc(C(=O)N[C@H](C(=O)N[C@@H](Cc2ccc(F)cc2)C(=O)N[C@@H](/C=C/C(=O)OCc2cccc3ncccc23)CCC(N)=O)C(C)C)no1`, for which the IC50 in data set [1] was determined as 280 nM. Also, in data set [2], the Activity is recorded as 50%.

Molecule `Cc1cc(C(=O)N[C@H](C(=O)N[C@@H](Cc2ccc(F)cc2)C(=O)N[C@@H](/C=C/C(=O)OCc2ccc3cn[nH]c3c2)CCC(N)=O)C(C)C)no1` gave an IC50 in data set [1] of 390 nM. Also, the Activity in data set [2] was 50%.

For `Cc1cc(C(=O)N[C@H](C(=O)N[C@@H](Cc2ccc(F)cc2)C(=O)N[C@@H](/C=C/C(=O)OCc2cn3c(C)cccc3n2)CCC(N)=O)C(C)C)no1`, the IC50 in data set [1] was 160 nM. Besides, the Activity in data set [2] is 50%.

The molecule `Cc1cc(C(=O)N[C@H](C(=O)N[C@@H](Cc2ccc(F)cc2)C(=O)N[C@@H](/C=C/C(=O)OCc2ccc3[nH]ncc3c2)CCC(N)=O)C(C)C)no1` displayed an IC50 in data set [1] of 180 nM. For the same molecule, the Activity in data set [2] turned out to be 50%.

In data set [1], `Cc1cc(C(=O)N[C@H](C(=O)N[C@@H](Cc2ccc(F)cc2)C(=O)N[C@@H](/C=C/C(=O)OCc2ccc3cnccc3c2)CCC(N)=O)C(C)C)no1` returned a half-inhibitory concentration (IC50) of 240 nM. Also, the Activity in data set [2] was 50%.

Turning to `Cc1cc(C(=O)N[C@H](C(=O)N[C@@H](Cc2ccc(F)cc2)C(=O)O)C(C)C)no1`, the inhibition (usually the drop in the measured response relative to a control, in per cent) in data set [5] is 33.5%.

As to `Cc1cc(C(=O)N[C@H](C(=O)N[C@@H](Cc2ccc(F)cc2)C(=O)N[C@@H](/C=C/C(=O)OCc2nc3cc(Cl)ccc3[nH]2)CCC(N)=O)C(C)C)no1`, in data set [1], the IC50 was 650 nM. The Activity in data set [2] stood at 50%.

In data set [1], `Cc1cc(C(=O)N[C@H](C(=O)N[C@@H](Cc2ccc(F)cc2)C(=O)N[C@@H](/C=C/C(=O)OCc2cccc3cnccc23)CCC(N)=O)C(C)C)no1` registered an IC50 of 270 nM. For the same molecule, the Activity in data set [2] was 50%.
